≈ marks a conversion by molar mass, not a printed value. Read-outs that look alike come from different tables or passages of the source.
Tests used:
survivin = assay: Effects of compounds on survivin expression (Table 9); type: cell-based; conditions: for inhibition at 25 µM: Table 9, 25 uM; for inhibition at 5 µM: read-out: Survivin % inhibition 5 uM, Table 9, 5 uM
Excerpt: A plasmid containing luciferase under the control of surviving promoter was constructed and transfected into wild type, CBP+/−, or p300+/−3T3 cells.
(§1) The effects of various compounds having general formula (I) on surviving and TCF4 expression were characterized.

TCF4 = assay: Effects of compounds on TCF4 expression (Table 9); type: cell-based
Excerpt: as §1

SW480 cells = assay: Growth inhibition assay (MTS or sulforhodamine B), SW480; type: cell-based; conditions: Homo sapiens
HCT116 cells = assay: Growth inhibition assay (MTS or sulforhodamine B), HCT116; type: cell-based; conditions: Homo sapiens, HCT-116, 48 h, Table 5, MTS or sulforhodamine B assay, HCT116, 48 hours
[1] = system: TCF4/β-catenin transcriptional pathway; assay: Reporter gene assay (TOPFlash luciferase) in SW480 cells; type: cell-based; conditions: Homo sapiens
Protocol: SW480 cells were transfected with the usage of Superfect™ transfect reagent (Qiagen, 301307). Cells were trypsinized briefly 1 day before transfection and plated on 6 well plate (5×10^5 cells/well) so that they were 50-80% confluent on the day of transfection.
Four microgram (TOPFlash) and one microgram (pRL-null) of DNAs were diluted in 150 μl of serum-free medium, and 30 μl of Superfect™ transfect reagent was added. The DNA-Superfect mixture was incubated at room temperature for 15 min, and then, 1 ml of 10% FBS DMEM was added to this complex for an additional 3 hours of incubation. While complexes were forming, cells were washed with PBS twice without antibiotics.
The DNA-Superfect™ transfect reagent complexes were applied to the cells before incubating at 37° C. at 5% CO2 for 3 hours. After incubation, recovery medium with 10% FBS was added to bring the final volume to 1.18 ml. After 3 hours incubation, the cells were harvested and reseeded to 96 well plate (3×10^4 cells/well). After overnight incubation at 37° C. at 5% CO2, the cells were treated with Compound A for 24 hours. Finally, the activity was checked by means of luciferase assay (Promega, E1960).

survivin promoter = assay: Survivin luciferase reporter in SW480 cells; type: cell-based; conditions: Homo sapiens, SW480, read-out: RGA, Survivin IC50, uM, Table 10, prodrug compounds, reporter gene assay survivin
physchem = conditions: 37 °C, thermodynamic from solid
293 = assay: Sulforhodamine B (SRB) assay, 293; type: cell-based; conditions: Homo sapiens, HEK293; Renal, 293, 48 hours
Protocol: Growth inhibitory effect of Compound A on the cells listed below was measured by the sulforhodamine B assay. SW480 cells in 100 μl media were plated in each well of 96-well plate and allowed to attach for 24 hours. Compound A was added to the wells to produce the desired final concentrations, and the plates were incubated at 37° C. for 48 hours. The cells were then fixed by gentle addition of 100 μl of cold (4° C.) 10% trichloroacetic acid to each well, followed by incubation at 4° C. for 1 hour. Plates were washed with deionized water five times and allowed to air dry. The cells were then stained by addition of 100 μl SRB solution (0.4% SRB(w/v) in 1% acetic acid (v/v)) to wells for 15 min. After staining, the plates were quickly washed five times with 1% acetic acid to remove any unbound dye, and allowed to air dry. Bound dye was solubilized with 10 mmol/L Tris base (pH 10.5) prior to reading the plates. The optical density (OD) was read on a plate reader at a wavelength of 515 nm with Molecular Device. Inhibition of growth was expressed as relative viability (% of control) and GI50 was calculated from concentration-response curves after log/probit transformation.
The values in Table 6 are in μg/ml.

surviving protein = assay: Western blot analysis of survivin protein; type: cell-based; conditions: 5 μM
min mouse = assay: Min mouse model (polyp number); type: in vivo; conditions: for % Inhibition vs. VH: total polyp number
Protocol: Selected compounds of the present invention (Compound B and Compound C) were evaluated in the min mouse model to evaluate their efficacy as anti-cancer agents.
The min mouse model is a widely used model to test for this type of efficacy. The numbers of polyp formed in small intestine and colon of these mice after various treatments were measured (Table 7).

[2] = SW480, 48 h, Table 5, MTS or sulforhodamine B assay, SW480, 48 hours, read-out: Growth Inhibition (GI50, uM) SW480
[3] = SW480, Table 4, selected library compounds, Reporter gene assay as described in Example 6, read-out: IC50
[4] = pH 1.2, simulated gastric fluid, Solubility JP1 (pH 1.2), 0 hr
[5] = pH 1.2, simulated gastric fluid, Solubility JP1 (pH 1.2), 2 hr
[6] = pH 1.2, simulated gastric fluid, Solubility JP1 (pH 1.2), 20 hr
[7] = pH 6.8, fassgf or other biorelevant, Solubility JP2 (pH 6.8), 0 hr
[8] = pH 6.8, fassgf or other biorelevant, Solubility JP2 (pH 6.8), 2 hr
[9] = pH 6.8, fassgf or other biorelevant, Solubility JP2 (pH 6.8), 20 hr

| Compound | solubility (physchem; [4]) | solubility (physchem; [5]) | solubility (physchem; [6]) | solubility (physchem; [7]) | solubility (physchem; [8]) | solubility (physchem; [9]) | also measured |
| --- | --- | --- | --- | --- | --- | --- | --- |
| CN1CC(=O)N2[C@@H](CN(Cc3cccc4ccccc34)C(=O)[C@@H]2Cc2ccc(O)cc2)N1C(=O)NCc1ccccc1 |  |  |  |  |  |  | inhibition at 25 µM (survivin): 99%; inhibition at 5 µM (survivin): 100%; IC50 (TCF4): ~2 µM |
| CN1CC(=O)N2[C@@H](CN(Cc3c(Cl)cc(Cl)c4cccnc34)C(=O)[C@@H]2Cc2ccc(O)cc2)N1C(=O)NCc1ccccc1 |  |  |  |  |  |  | inhibition at 25 µM (survivin): 58%; inhibition at 5 µM (survivin): 6%; IC50 (TCF4): 11.2 ± 1.5 µM |
| CN1CC(=O)N2[C@@H](Cc3ccc(O)cc3)C(=O)N(Cc3cccc4ccccc34)C[C@@H]2N1C(=O)NCc1ccccc1 [Compound 1] |  |  |  |  |  |  | GI50 (SW480 cells; [2]): 2.28 µM; GI50 (HCT116 cells): 1.78 µM |
| CN1CC(=O)N2[C@@H](Cc3ccc(OP(=O)(O)O)cc3)C(=O)N(Cc3cccc4ccccc34)C[C@@H]2N1C(=O)NCc1ccccc1 [Compound 1] |  |  |  |  |  |  | IC50 ([1]; SW480, Table 10, prodrug compounds, reporter gene assay TopFlash, read-out: RGA, TopF IC50): 4.2 µM; GI50 (SW480 cells; SW480, Table 10, prodrug compounds, SW480, read-out: MTS, SW480 (uM) GI50): 2 µM; IC50 (survivin promoter): 6.4 µM; solubility (physchem; pH 1.2, simulated gastric fluid, Solubility JP1 (pH 1.2)): 60.1 µg/mL (≈ 93.4 µM); solubility (physchem; pH 6.8, fassgf or other biorelevant, Solubility JP2 (pH 6.8)): 1800 µg/mL (≈ 2790 µM) |
| COC(=O)N1C2CN(CCc3ccc(F)cc3)C(=O)C(Cc3cccc4ccccc34)N2C(=O)CN1Cc1ccccc1 (stereo not drawn) [Compound 1] |  |  |  |  |  |  | IC50 [1, 3]: 12.8 µM |
| CN(C)c1cc(F)ccc1CN1C[C@H]2N(C(=O)CN(C)N2C(=O)NCc2ccccc2)[C@@H](Cc2ccc(OP(=O)(O)O)cc2)C1=O [Compound 3] | 1880 µg/mL (≈ 2870 µM) | 1970 µg/mL (≈ 3010 µM) | 2040 µg/mL (≈ 3110 µM) | 1320 µg/mL (≈ 2020 µM) | 1900 µg/mL (≈ 2910 µM) | 2000 µg/mL (≈ 3060 µM) |  |
| CN1CC(=O)N2[C@@H](Cc3ccc(OP(=O)([O-])[O-])cc3)C(=O)N(Cc3ccc(F)cc3F)C[C@@H]2N1C(=O)NCc1ccccc1.[Na+].[Na+] [Compound 4] | 554 µg/mL | 646 µg/mL | 756 µg/mL | 1980 µg/mL | 2010 µg/mL | 2030 µg/mL |  |
| O=c1[nH]cc(F)c(=O)[nH]1 [Compound 5-FU, 5-fluorouracil, reference compound] |  |  |  |  |  |  | GI50 293: 2.02 µg/mL (≈ 15.5 µM); amount of survivin protein (Western blot) (surviving protein): reduced the amount of the surviving protein |
| CN1CC(=O)N2[C@@H](Cc3ccc(OP(=O)(O)O)cc3)C(=O)N(Cc3cccc4cnn(C)c34)C[C@@H]2N1C(=O)NCc1ccccc1 [Compound 5] | 406 µg/mL (≈ 627 µM) | 532 µg/mL (≈ 821 µM) | 684 µg/mL (≈ 1060 µM) | 1760 µg/mL (≈ 2720 µM) | 1780 µg/mL (≈ 2750 µM) | 1760 µg/mL (≈ 2710 µM) |  |
| C=CCN1CC(=O)N2[C@@H](Cc3ccc(OP(=O)([O-])[O-])cc3)C(=O)N(Cc3cccc4cccnc34)C[C@@H]2N1C(=O)NCc1ccccc1.[Na+].[Na+] [Compound 6] | 1450 µg/mL | 1720 µg/mL | 1790 µg/mL | 1830 µg/mL | 1860 µg/mL | 1870 µg/mL |  |
| C=CCN1CC(=O)N2[C@@H](Cc3ccc(OP(=O)([O-])[O-])cc3)C(=O)N(Cc3ccc(Cl)c4cccnc34)C[C@@H]2N1C(=O)NCc1ccccc1.[Na+].[Na+] [Compound 7] | 309 µg/mL | 446 µg/mL | 521 µg/mL | 2140 µg/mL | 2220 µg/mL | 2240 µg/mL |  |
| C=CCN1CC(=O)N2[C@@H](Cc3ccc(OP(=O)([O-])[O-])cc3)C(=O)N(Cc3ccc(F)cc3F)C[C@@H]2N1C(=O)NCc1ccccc1.[Na+].[Na+] [Compound 8] | 671 µg/mL | 775 µg/mL | 921 µg/mL | 2300 µg/mL | 2320 µg/mL | 2270 µg/mL |  |
| CN1CC(=O)N2[C@@H](Cc3ccc(OP(=O)([O-])[O-])cc3)C(=O)N(Cc3cccc4cccnc34)C[C@@H]2N1C(=O)NCc1ccccc1.[Na+].[Na+] [Compound 9] | 2250 µg/mL | 2280 µg/mL | 2400 µg/mL | 2320 µg/mL | 2350 µg/mL | 2420 µg/mL |  |
| CN(C)c1cc(F)c(F)cc1CN1C[C@H]2N(C(=O)CN(C)N2C(=O)NCc2ccccc2)[C@@H](Cc2ccc(OP(=O)([O-])[O-])cc2)C1=O.[Na+].[Na+] [Compound 10] | 2290 µg/mL | 2270 µg/mL | 2330 µg/mL | 2030 µg/mL | 2060 µg/mL | 2030 µg/mL |  |
| CN(C)c1cc(CN2C[C@H]3N(C(=O)CN(C)N3C(=O)NCc3ccccc3)[C@@H](Cc3ccc(OP(=O)([O-])[O-])cc3)C2=O)ccc1Cl.[Na+].[Na+] [Compound 11] | 2010 µg/mL | 2000 µg/mL | 2000 µg/mL | 1640 µg/mL | 1650 µg/mL | 1650 µg/mL |  |
| CN1CC(=O)N2[C@@H](Cc3ccc(O)cc3)C(=O)N(Cc3ccc(F)cc3F)C[C@@H]2N1C(=O)NCc1ccccc1 [Compound 13] |  |  |  |  |  |  | GI50 (SW480 cells; [2]): 1.65 µM; GI50 (HCT116 cells): 1.59 µM |
| CCOP(=O)(CC(=O)Nc1ccc(C[C@H]2C(=O)N(Cc3cccc4ccccc34)C[C@H]3N2C(=O)CN(C)N3C(=O)NCc2ccccc2)cc1)OCC [Compound 59] |  |  |  |  |  |  | GI50 (SW480 cells; [2]): > 50 µM |
| CN1CC(=O)N2[C@@H](Cc3ccc(O)cc3)C(=O)N(Cc3cccc4c3cnn4CCN3CCOCC3)C[C@@H]2N1C(=O)NCc1ccccc1 [Compound 73] |  |  |  |  |  |  | GI50 (SW480 cells; [2]): 9.2 ± 0.8 µM; GI50 (HCT116 cells): 15.8 ± 2.6 µM |
| CN1CC(=O)N2[C@@H](Cc3ccc(O)cc3)CN(Cc3ccc(F)cc3F)C[C@@H]2N1C(=O)NCc1ccccc1 [Compound 77] |  |  |  |  |  |  | GI50 (SW480 cells; [2]): 26.5 ± 6.5 µM; GI50 (HCT116 cells): 10.7 ± 0.8 µM |
| C=CCN1CC(=O)N2[C@@H](Cc3ccc(O)cc3)C(=O)N(Cc3ccc(F)cc3F)C[C@@H]2N1C(=O)NCc1ccccc1 [Compound 115] |  |  |  |  |  |  | GI50 (SW480 cells; [2]): 2 ± 0.7 µM; GI50 (HCT116 cells): 1.1 ± 0.04 µM |
| C=CCN1CC(=O)N2[C@@H](Cc3ccc(O)cc3)C(=O)N(Cc3ccc(F)cc3F)[C@@H](C)[C@@H]2N1C(=O)NCc1ccccc1 [Compound 147] |  |  |  |  |  |  | GI50 (SW480 cells; [2]): 6.1 ± 0.4 µM; GI50 (HCT116 cells): 5.5 ± 0.4 µM |
| C=CCN1CC(=O)N2[C@@H](Cc3ccc(OP(=O)(O)O)cc3)C(=O)N(Cc3cccc4c3OCCN4C)C[C@@H]2N1C(=O)NCc1ccccc1 [Compound 169] |  |  |  |  |  |  | IC50 [1, 3]: 1 ± 0.1 µM |
| CN1CC(=O)N2[C@@H](Cc3ccc(O)cc3)C(=O)N(Cc3cccc4cccnc34)C[C@@H]2N1C(=O)NCc1ccccc1 [Compound B] |  |  |  |  |  |  | Polyp Number (Mean ± S.D.) Colon (min mouse; 300 mpk): 1.4 ± 0.9; Polyp Number (Mean ± S.D.) Small Intestine (min mouse; 300 mpk): 45.2 ± 22.1; Polyp Number (Mean ± S.D.) Total (min mouse; 300 mpk): 46.8 ± 17.0; % Inhibition vs. VH (min mouse; 300 mpk): 31% |
| CC1=C(CC(=O)O)c2cc(F)ccc2/C1=C\c1ccc([S+](C)[O-])cc1 (stereo not drawn) [Sulindac] |  |  |  |  |  |  | Polyp Number (Mean ± S.D.) Colon (min mouse; 160 ppm): 0.5 ± 0.5; Polyp Number (Mean ± S.D.) Small Intestine (min mouse; 160 ppm): 48.0 ± 20.7; Polyp Number (Mean ± S.D.) Total (min mouse; 160 ppm): 48.5 ± 20.9; % Inhibition vs. VH (min mouse; 160 ppm): 28% |
